These results are taken from patent publication US12162888B2, “Carboxamides as ubiquitin-specific protease inhibitors” (Valo Early Discovery, Inc., priority 2018, dated 2024).

The target of the first experiment is T1, USP25 (USP25-His6, Boston Biochem E-546) (Homo sapiens, UniProt Q9UHP3).
T1 construct: His6 (C); purchased Boston Biochem E-546
T1 sequence (Q9UHP3 1-1055): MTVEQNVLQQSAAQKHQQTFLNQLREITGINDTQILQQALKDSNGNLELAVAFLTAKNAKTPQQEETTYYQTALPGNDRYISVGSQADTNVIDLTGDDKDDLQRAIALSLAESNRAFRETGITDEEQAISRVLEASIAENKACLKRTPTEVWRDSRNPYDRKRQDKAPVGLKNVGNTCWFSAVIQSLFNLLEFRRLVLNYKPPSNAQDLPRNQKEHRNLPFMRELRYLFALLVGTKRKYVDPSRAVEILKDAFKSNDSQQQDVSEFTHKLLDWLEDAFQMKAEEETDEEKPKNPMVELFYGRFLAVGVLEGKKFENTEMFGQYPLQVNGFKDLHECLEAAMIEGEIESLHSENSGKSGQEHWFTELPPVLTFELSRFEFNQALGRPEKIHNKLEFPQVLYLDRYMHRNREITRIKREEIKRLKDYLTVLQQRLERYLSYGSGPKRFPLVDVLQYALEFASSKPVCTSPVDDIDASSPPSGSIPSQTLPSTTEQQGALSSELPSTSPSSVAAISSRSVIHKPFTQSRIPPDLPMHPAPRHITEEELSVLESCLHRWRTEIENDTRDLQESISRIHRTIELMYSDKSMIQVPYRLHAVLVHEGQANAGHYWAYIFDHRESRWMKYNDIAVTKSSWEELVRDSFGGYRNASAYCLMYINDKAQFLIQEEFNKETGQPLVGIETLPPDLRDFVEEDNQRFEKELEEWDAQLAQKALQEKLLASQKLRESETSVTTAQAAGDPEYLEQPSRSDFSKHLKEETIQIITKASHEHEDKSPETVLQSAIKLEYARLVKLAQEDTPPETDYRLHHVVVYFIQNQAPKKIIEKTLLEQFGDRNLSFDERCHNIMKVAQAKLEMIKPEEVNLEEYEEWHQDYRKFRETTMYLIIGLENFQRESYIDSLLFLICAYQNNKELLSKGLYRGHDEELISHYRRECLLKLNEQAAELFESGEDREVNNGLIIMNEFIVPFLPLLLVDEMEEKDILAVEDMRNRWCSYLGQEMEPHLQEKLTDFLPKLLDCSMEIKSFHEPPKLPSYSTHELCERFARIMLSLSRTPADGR
Description: Ubiquitin-Rhodamine 110 Assay for USP25 Activity, Example A-3. Type of experiment: biochemical. The following applies: Ubiquitin-Rhodamine 110 assay, Example A-3; IC50 ranges; read-out: USP25 A-3 IC50. The procedure:
Example A-3: Biochemical Assay: Ubiquitin-Rhodamine 110 Assay for USP25 Activity
The assay was performed in a final volume of 9 μL in assay buffer containing 20 mM Tris-HCl (pH 8.0, (1M Tris-HCl, pH 8.0 solution; Corning 46-031-CM)), 3 mM BME (2-Mercaptoethanol; Sigma 63689-25ML-F), 0.03% BGG (0.22 μM filtered, Sigma, G7516-25G), and 0.01% Triton X-100 (Sigma, T9284-10L). Nanoliter quantities of 10-point, 3-fold serial dilution in DMSO was pre-dispensed into 1536 assay plates (Corning, #3724BC) for a final test concentration of 25 μM to 1.3 nM, top to lowest dose, respectively. Enzyme USP25, construct USP25-His6, (Boston Biochem E-546). Concentration and incubation times were optimized for the maximal signal-to-background while maintaining initial velocity conditions at a fixed substrate concentration. The final concentration of the enzyme in the assay was […]. Final substrate (Ub-Rh110; Ubiquitin-Rhodamine 110, R&D Systems #U-555) concentration was 25 nM with [Ub-Rh110]<<Km. 3 μL of 2× enzyme was added to assay plates (pre-stamped with compound) preincubated with […] for 30 minutes and then 3 μL of 2× Ub-Rh110 was added to assay plates. Plates were incubated for 45 minutes at room temperature before addition of 3 μL of stop solution (final concentration of 10 mM citric acid (Sigma, 251275-500G)). Fluorescence was read on the Envision (Excitation at 485 nm and Emission at 535 nm; Perkin Elmer) or on the PheraSTAR (Excitation at 485 nm and Emission at 535 nm; BMG Labtech).
For assay formats Example A-1(a), A-1(b), and A-2, data were reported as percent inhibition compared with control wells based on the following equation: % inh=1−((FLU−AveLow)/(AveHigh−AveLow)) where FLU=measured Fluorescence, AveLow=average Fluorescence of no enzyme control (n=16), and AveHighh=average Fluorescence of DMSO control (n=16). IC50 values were determined by curve fitting of the standard 4 parameter logistic fitting algorithm included in the Activity Base software package: IDBS XE Designer Model 205. Data is fitted using the Levenburg Marquardt algorithm.
Take `Cc1ccc2c(N)c(C(=O)N[C@H]3COc4cc(N5CC[C@@H]6CCC(N)C[C@@H]65)ccc4C3)sc2n1` (stereo in doubt) [Example 234, N-[(3R)-7-[(3aS,6S,7aS)-6-amino-octahydro-1H-indol-1-yl]-3,4-dihydro-2H-1-benzopyran-3-yl]-3-amino-6-methylthieno[2,3-b]pyridine-2-carboxamide]: the IC50 – broadly, the concentration at which inhibition is half-maximal – was 50 to 200 nM.

The same experiment, now with this note: Ubiquitin-Rhodamine 110 assay, Example A-3; read-out: USP25 A-3 IC50 range.
Consider `Cc1ccc2c(N)c(C(=O)N[C@H]3CCc4nc(N5C[C@@H](N)[C@H](C(F)(F)F)C5)ccc4C3)sc2n1` [Example 364, 3-amino-N-[(6S)-2-[(3S,4R)-3-amino-4-(trifluoromethyl)pyrrolidin-1-yl]-5,6,7,8-tetrahydroquinolin-6-yl]-6-methylthieno[2,3-b]pyridine-2-carboxamide], for which the IC50 is above 2000 nM.

As to `CCn1ccc2cc(C(=O)N[C@H]3CCc4nc(N5C[C@H](N)[C@@H](C(F)(F)F)C5)ccc4C3)cnc21` [Example 421, N-[(6S)-2-[(3R,4S)-3-amino-4-(trifluoromethyl)pyrrolidin-1-yl]-5,6,7,8-tetrahydroquinolin-6-yl]-1-ethyl-1H-pyrrolo[2,3-b]pyridine-5-carboxamide], the IC50 lay in the range of 200 to 2000 nM.

In the case of `Cc1ccc2c(N)c(C(=O)N[C@H]3COc4cc(N5CC6CCC(C5)N6)c(F)cc4C3)sc2n1` [Example 104, 3-amino-N-[(3R)-7-{3,8-diazabicyclo[3.2.1]octan-3-yl}-6-fluoro-3,4-dihydro-2H-1-benzopyran-3-yl]-6-methylthieno[2,3-b]pyridine-2-carboxamide], the half-inhibitory concentration (IC50) lay within 50 to 200 nM.

For `Cc1ccc2c(N)c(C(=O)N[C@H]3CCc4nc(N5CC[C@](N)(CO)C5)ccc4C3)sc2n1` [Example 386, 3-amino-N-[(6S)-2-[(3R)-3-amino-3-(hydroxymethyl)pyrrolidin-1-yl]-5,6,7,8-tetrahydroquinolin-6-yl]-6-methylthieno[2,3-b]pyridine-2-carboxamide], the IC50 lay in the range of 200 to 2000 nM.

For the compound `COC[C@H]1[C@H](N)CCN1c1ccc2c(n1)CC[C@H](NC(=O)c1sc3nc(C)ccc3c1N)C2` [Example 419, 3-amino-N-[(6S)-2-[(2R,3R)-3-amino-2-(methoxymethyl)pyrrolidin-1-yl]-5,6,7,8-tetrahydroquinolin-6-yl]-6-methylthieno[2,3-b]pyridine-2-carboxamide], the IC50 was above 2000 nM.

For `CCn1ccc2cc(C(=O)N[C@H]3CCc4nc(N5C[C@@H](N)C6(COC6)C5)ccc4C3)cnc21` [Example 404, N-[(6S)-2-[(8S)-8-amino-2-oxa-6-azaspiro[3.4]octan-6-yl]-5,6,7,8-tetrahydroquinolin-6-yl]-1-ethyl-1H-pyrrolo[2,3-b]pyridine-5-carboxamide], the IC50 is above 2000 nM.

`Cc1ccc2c(N)c(C(=O)N[C@H]3CCc4nc(N5CCN[C@H](C(F)F)C5)ccc4C3)sc2n1` [Example 374, 3-amino-N-[(6S)-2-[(3S)-3-(difluoromethyl)piperazin-1-yl]-5,6,7,8-tetrahydroquinolin-6-yl]-6-methylthieno[2,3-b]pyridine-2-carboxamide]: the half-inhibitory concentration (IC50) is above 2000 nM.

With `CN[C@@H]1CN(c2ccc3c(n2)CC[C@H](NC(=O)c2sc4nc(C)ccc4c2N)C3)C[C@H]1C(F)F` [Example 377, 3-amino-N-[(6S)-2-[(3R,4S)-3-(difluoromethyl)-4-(methylamino)pyrrolidin-1-yl]-5,6,7,8-tetrahydroquinolin-6-yl]-6-methylthieno[2,3-b]pyridine-2-carboxamide], the IC50 is above 2000 nM.

For the compound `Cc1ccc2c(N)c(C(=O)N[C@@H]3CCc4nc(N5C[C@H](C(F)F)[C@@H](N)C5)ncc4C3)sc2n1` [Example 383, 3-amino-N-[(6R)-2-[(3R,4S)-3-amino-4-(difluoromethyl)pyrrolidin-1-yl]-5,6,7,8-tetrahydroquinazolin-6-yl]-6-methylthieno[2,3-b]pyridine-2-carboxamide], the concentration for half-maximal inhibition (IC50) is above 2000 nM.

As for `COC[C@@]1(N)CCN(c2ccc3c(n2)CC[C@H](NC(=O)c2sc4nc(C)ccc4c2N)C3)C1` [Example 388, 3-amino-N-[(6S)-2-[(3R)-3-amino-3-(methoxymethyl)pyrrolidin-1-yl]-5,6,7,8-tetrahydroquinolin-6-yl]-6-methylthieno[2,3-b]pyridine-2-carboxamide], the IC50 lay in the range of 200 to 2000 nM.

Take `Cc1ccc2c(N)c(C(=O)N[C@H]3CCc4nc(N5C[C@H](CF)[C@@H](N)C5)ccc4C3)sc2n1` [Example 384, 3-amino-N-[(6S)-2-[(3R,4S)-3-amino-4-(fluoromethyl)pyrrolidin-1-yl]-5,6,7,8-tetrahydroquinolin-6-yl]-6-methylthieno[2,3-b]pyridine-2-carboxamide]: the half-inhibitory concentration (IC50) is 200 to 2000 nM.

Take `CCn1ccc2cc(C(=O)N[C@H]3CCc4nc(N5C[C@@H](N)[C@H](C(F)F)C5)ccc4C3)cnc21` [Example 371, N-[(6S)-2-[(3S,4R)-3-amino-4-(difluoromethyl)pyrrolidin-1-yl]-5,6,7,8-tetrahydroquinolin-6-yl]-1-ethyl-1H-pyrrolo[2,3-b]pyridine-5-carboxamide]: the IC50 is above 2000 nM.

Regarding `CCn1ccc2cc(C(=O)N[C@H]3CCc4nc(N5C[C@H](C(F)F)[C@@H](N)C5)ccc4C3)cnc21` [Example 370, N-[(6S)-2-[(3R,4S)-3-amino-4-(difluoromethyl)pyrrolidin-1-yl]-5,6,7,8-tetrahydroquinolin-6-yl]-1-ethyl-1H-pyrrolo[2,3-b]pyridine-5-carboxamide], the IC50 is 200 to 2000 nM.

With `Cc1ccc2c(N)c(C(=O)N[C@H]3CCc4nc(N5CC6(C[C@@H](N)CO6)C5)ccc4C3)sc2n1` [Example 398, 3-amino-N-[(6S)-2-[(7R)-7-amino-5-oxa-2-azaspiro[3.4]octan-2-yl]-5,6,7,8-tetrahydroquinolin-6-yl]-6-methylthieno[2,3-b]pyridine-2-carboxamide], the IC50 was 200 to 2000 nM.

Turning to `Cc1ccc2c(N)c(C(=O)N[C@H]3CCc4nc(N5C[C@@H](CF)[C@H](N)C5)ccc4C3)sc2n1` [Example 385, 3-amino-N-[(6S)-2-[(3S,4R)-3-amino-4-(fluoromethyl)pyrrolidin-1-yl]-5,6,7,8-tetrahydroquinolin-6-yl]-6-methylthieno[2,3-b]pyridine-2-carboxamide], the IC50 is above 2000 nM.

As to `Cc1ccc2c(N)c(C(=O)N[C@H]3CCc4nc(N5C[C@H](C(F)F)[C@@H](N)C5)ncc4C3)sc2n1` [Example 380, 3-amino-N-[(6S)-2-[(3R,4S)-3-amino-4-(difluoromethyl)pyrrolidin-1-yl]-5,6,7,8-tetrahydroquinazolin-6-yl]-6-methylthieno[2,3-b]pyridine-2-carboxamide], the IC50 was above 2000 nM.

As for `Cc1ccc2c(N)c(C(=O)N[C@H]3CCc4nc(N5C[C@@H](N)[C@H](C(F)F)C5)ncc4C3)sc2n1` [Example 381, 3-amino-N-[(6S)-2-[(3S,4R)-3-amino-4-(difluoromethyl)pyrrolidin-1-yl]-5,6,7,8-tetrahydroquinazolin-6-yl]-6-methylthieno[2,3-b]pyridine-2-carboxamide], the IC50 was above 2000 nM.
